Test results: PMC12040169 (PLOS Biology, 2025)
Values joined by “and” are separate entries in the source; they are usually repeats but may differ in a detail not shown here. Identical values can stand only once.

Tests used:
in vitro = settings: human, hela cells, % viability
HeLa = settings: bulk resorufin, single well, 28.5 h, 10 µM, Bulk resorufin fluorescence

Compound	viability at 28.5 h, 10 µM (in vitro) [%]	% viability (HeLa)
C[C@@H]1CN2CCCC2CN1Cc1cc(F)ccc1F (some centres unmarked) [CBK285444]	104	94.9%
Cc1cc(CN2CC3CCCN3C[C@@H]2C)c(C)n1-c1ccccn1 (some centres unmarked) [CBK285431]	87	98.1%
O=C(O)c1c(NS(=O)(=O)c2ccc(Oc3ccccc3)cc2)sc2c1CCCC2 [CBK024820]	101	106%
CCCc1[nH]nc(O)c1CCc1ccc(Cl)cc1Cl [CBK075082]	106	109%
CN1CCc2[nH]c(=S)c(C#N)c(-c3ccccc3)c2C1 [CBK288354]	96.5	87.1%
C[C@H](Cn1c(=O)oc2ccccc21)NC(=O)c1cccs1 [CBK284532]	85	90.7%
O=C(NCCc1ccccc1)[C@H]1C=CCN1C(=O)c1ccc(F)cc1 [CBK282383]	89.4	96.3% and 92.6%
Clc1ccc(COc2ccnc(N3CCCN(CCN4CCOCC4)CC3)n2)cc1Cl [CBK083957]	97.8	98.9%
Cc1cc(CNC(=S)NC2CCCCC2)nn1C [CBK288519]	82.5	94%
O=C(CNS(=O)(=O)c1ccc(Br)cc1)N1CCOCC1 [CBK034469]	96	87%
C[C@@H]1CN2C[C@H](O)CC2CN1Cc1cccc(C(F)(F)F)c1 (some centres unmarked) [CBK285413]	91.7	88.1%
S=C(Nc1ccc(C2=NCCO2)cc1)Nc1ccc(Cl)c(Cl)c1 [CBK022344]	90.6	106%
CCn1cc(CN2C[C@@H]3CCCN3C[C@H]2CCSC)c(C)n1 [CBK285460]	96.3	99.1%
CC(C)[C@@H](Cn1c(=O)oc2ccccc21)NC(=O)c1ccco1 [CBK284531]	94.1	86.1%
O=C1CSC(Nc2ccc(Br)cc2)=N1 [CBK026413]	79.9	88.5%
Cc1ccc(Nc2cc(N3CCC(C(=O)O)CC3)ncn2)cc1 [CBK288121]	104	91.3%
C[C@@H]1CN2CCCC2CN1Cc1cc(F)cc(F)c1 (some centres unmarked) [CBK285405]	96.1	105%
O=C1[C@@H]2CCCN2C(=O)c2ccccc2N1Cc1ccc(F)cc1 [CBK282856]	117	99.5%
O=C(CC1SC(Nc2ccc(O)cc2)=NC1=O)c1ccccc1 (centres unmarked) [CBK267009]	98.5	89%
COc1nccnc1OC1CCNCC1 [CBK073919T]	100	86.5% and 97.3%
CC(C)(C)OC(=O)N1CCC[C@@H](CNC(=O)c2cccs2)C1 [CBK284332]	104	90.2%
O=C(O)/C(SC1=NC2=Nc3ccccc3C2N=N1)=C1/C(=O)Nc2ccccc21 (centres unmarked) [CBK021943]	100	96%
COCCn1cc(CN2CC3CCCN3C[C@H]2C)c2ccccc21 (some centres unmarked) [CBK285427]	95.7	106%
CC(C)(C)NC(=O)CN1C(=O)[C@H]2CCCN2C(=O)c2ccccc21 [CBK282428]	89.5	107%
CC[C@@H](Cn1nc(-c2cccs2)ccc1=O)NC(=O)c1ccco1 [CBK282308]	94.7	87.3%

Compound	viability at 28.5 h, 10 µM (in vitro) [%]	% viability (HeLa)
Cc1oc(C2CC2)cc1C(=O)N[C@H](C)Cn1nnc2ccccc21 [CBK284258]	78.1	80.8%
CC(C)(C)OC(=O)N1CCC[C@H]([C@H](O)c2ccc(F)cc2)C1 [CBK284298]	92.3	80.1%
CCCCOC(=O)c1ccc(NC(=O)Nc2ccc3ccc(Cl)nc3n2)cc1 [CBK115932]	93.8	97.1%
O=C(O)C(Cc1ccc(O)cc1)N1C(=O)c2ccccc2C1=O (centres unmarked) [CBK262479]	84.1	80.4%
Cc1nc2ccccc2n1C(=O)c1sc2ccccc2c1Cl [CBK020557]	106	115%
COCCn1c(C)cc(CN2CC3CCCN3C[C@@H]2C)c1C (some centres unmarked) [CBK285421]	83.8	101%
C[C@@H]1CN2C[C@H](O)CC2CN1Cc1ccccc1C(F)(F)F (some centres unmarked) [CBK284556]	80.7	100%
CCCNC(=O)[C@@H]1Cc2c([nH]c3ccccc23)[C@]2(CCN(CCOc3ccccc3)C2)N1 [CBK063172T]	101	86%
CS(=O)(=O)N1C2CCC(C2)[C@H]1COc1cccc(C(F)(F)F)c1 (some centres unmarked) [CBK284596]	98.7	107%
O=C(CN1C(=O)[C@H]2CCCN2C(=O)c2ccccc21)NCC1CC1 [CBK282853]	87.6	88.6%
Cc1c(NC(=O)OC(C)C)sc(=S)n1C [CBK028089]	88.9	83.7%
CN1CCN(S(=O)(=O)c2ccc(C(=O)O)cc2)CC1 [CBK062446]	90.4	109% and 101%
C/C(=N\O)c1cc2cc(Cl)cc(Cl)c2oc1=O [CBK288516]	84.5	90.6%
O=C(NC1CCCCC1)[C@H]1C=CCN1C(=O)c1ccc(F)cc1F [CBK282311]	95	97.2%
O=C(NC[C@@H]1CCCN(C(=O)c2cscn2)C1)c1cccs1 [CBK284263]	85.7	93.5%
Cc1ccc(C(=O)NCC(=O)NCC(=O)O)cc1 [CBK262170]	103	91.7%
CCOc1ccsc1C(=O)NCc1ccc(OC2CCNCC2)cc1 [CBK036355T]	106	114%
CCC(C)NC(=O)Cn1c([C@H]2CCCO2)cc2cccnc21 (some centres unmarked) [CBK282874]	88.1	100%
COc1ccc(C(=O)Nc2nnc(CC(=O)N/N=C/c3ccccc3OC)s2)cc1 [CBK072076]	91.8	101%
C[C@H](Cn1c(C(F)(F)F)cc2cccnc21)NC(=O)C1CC1 [CBK283227]	93.7	89.4%
COc1cc(F)ccc1-c1nc(NS(C)(=O)=O)cc2ccccc12 [CBK085751]	97.2	105%
CN(C)S(=O)(=O)c1cc(C(=O)O)c(Cl)cc1Cl [CBK113173]	101	94%
CC(CCN1CC2C[C@@H](O)CN2C[C@H]1C)c1ccccc1 (some centres unmarked) [CBK283010]	82.4	89.2%
CC(=O)NC(NS(=O)(=O)c1ccccc1)(C(F)(F)F)C(F)(F)F [CBK025820]	98.4	92.5%
O=C(O)C1(c2ccccc2)CCN(S(=O)(=O)c2ccc(F)cc2)CC1 [CBK267571]	92.9	87.8%

Compound	viability at 28.5 h, 10 µM (in vitro) [%]	% viability (HeLa)
COc1ccc(C(CC(=O)O)NC(=O)c2ccccc2)cc1 (centres unmarked) [CBK261121]	89.3	93.9%
NS(=O)(=O)c1ccc2nc(NC(=O)c3ccc(Cl)s3)sc2c1 [CBK287320]	108	89.6%
Cc1nnc(SCC(=O)Nc2ccc(CN3CCOCC3)cc2)s1 [CBK269849]	96.4	112%
O=C(Cn1c([C@H]2CCCO2)cc2cccnc21)NC1CC1 [CBK282274]	94.8	102%
CCOc1ccc(CN2CC3CCCN3C[C@H]2C)cc1 (some centres unmarked) [CBK285422]	87.8	100%
C[C@H]1CN2C[C@H](O)CC2CN1Cc1cc(Br)cs1 (some centres unmarked) [CBK285044]	103	94%
O=C(O)Cc1cc(C(=O)/C=C/c2c(Cl)cccc2Cl)ccc1O [CBK013106]	99	100%
C[C@@H]1CN2CCCC2CN1Cc1ccc(F)c(F)c1 (some centres unmarked) [CBK285445]	99.5	105%
CS(=O)(=O)Nc1cc2cccnc2nc1-c1ccc2c(c1)CCO2 [CBK085690]	104	102%
Cc1csc(NC(=O)c2ccc(S(=O)(=O)N3CCCCC3)cc2)n1 [CBK069735]	102	103%
CC1(C)CC(NC(=O)/C=C/C(=O)O)CC(C)(C)N1 [CBK262018]	88.4	90.9%
O=C(O)c1cccc2c1C(=O)N(Cc1ccccc1)C2 [CBK286872]	91	89.1%
O=C(CN1C(=O)[C@H]2CCCN2C(=O)c2ccccc21)NC1CCCC1 [CBK282438]	112	110%
COc1ccc(/C=C/C(=O)O)cc1S(=O)(=O)N1CCOCC1 [CBK261247]	101	84.7%
C[C@@H](Cn1c(=O)oc2ccccc21)NC(=O)Cc1cccs1 [CBK284533]	92.9	79.8%
CCN(Cc1ccccc1)C(=O)NCC1COc2ccccc2O1 (centres unmarked) [CBK155213]	103	89.3%
O=C(Cn1c([C@H]2CCCO2)cc2cccnc21)NC1CCCC1 [CBK285219]	88.8	85.4%
CCOC(=O)c1c(NS(=O)(=O)c2ccc(NC(C)=O)cc2)sc2c1CCCC2 [CBK004658]	90.3	99.8%
COc1ccc2[nH]cc(CCNC(=O)Cc3c[nH]c4ccc(O)cc34)c2c1 [CBK116216]	98.6	84.5%
COc1ccc2c(CN3CC4CCCN4C[C@H]3C)cn(C)c2c1 (some centres unmarked) [CBK285164]	92.4	84%
O=C(C1CC1)N1CCC[C@H](Cn2nc(-c3cccs3)ccc2=O)C1 [CBK284314]	74.7	91.8%
Nc1c(-c2cccc3cccnc23)cnc2ncccc12 [CBK083682]	108	88.7%
FC(F)(F)c1ccnc(OCCCc2ccncc2)c1 [CBK115786]	109	101%
